Results from publication PMC5607274, “An iterative compound screening contest method for identifying target protein inhibitors using the tyrosine-protein kinase Yes” (Scientific Reports, 2017).

What follows are molecules tested against T1, human recombinant Yes [a.a. 2–543 (end)] (Homo sapiens, UniProt P07947) (assay: ADP-Glo kinase assay, inhibition rates of Yes phosphorylation activity (first and second screening)). Settings: first screening; mean of n = 4 wells; 10 μmol L−1 compound.
T1 construct: human recombinant Yes [a.a; 2–543 (end)]; purchased BPS Bioscience 40488
Assay type: biochemical
In short: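 Hits from a first pass were rescreened after re-dissolution from fresh powder. The first pass reported the mean inhibition rate of quadruplicate wells per compound. Activity was that of recombinant human Yes [a.a. 2–543] kinase, read out with the ADP-Glo ADP-detection method.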

T1 sequence (P07947 2-543): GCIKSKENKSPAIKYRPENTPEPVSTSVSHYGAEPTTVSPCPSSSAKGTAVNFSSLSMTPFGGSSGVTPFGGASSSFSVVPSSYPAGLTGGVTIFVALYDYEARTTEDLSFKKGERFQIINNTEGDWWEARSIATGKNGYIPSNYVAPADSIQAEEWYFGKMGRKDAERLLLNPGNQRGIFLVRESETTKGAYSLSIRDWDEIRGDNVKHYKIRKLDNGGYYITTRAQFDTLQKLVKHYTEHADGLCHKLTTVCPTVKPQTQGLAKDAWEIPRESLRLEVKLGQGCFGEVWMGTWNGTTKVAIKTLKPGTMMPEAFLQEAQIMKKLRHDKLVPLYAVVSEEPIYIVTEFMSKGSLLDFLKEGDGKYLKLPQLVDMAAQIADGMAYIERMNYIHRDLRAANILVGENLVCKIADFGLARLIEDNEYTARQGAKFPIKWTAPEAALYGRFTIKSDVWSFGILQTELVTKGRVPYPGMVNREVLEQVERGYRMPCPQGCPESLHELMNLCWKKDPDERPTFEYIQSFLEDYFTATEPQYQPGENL

Compound | First screening IR (inhibition rate) [%]
Cc1cn2c3c(=O)n(CCN4CCCCC4)c(=O)n(C)c3nc2n1-c1ccc(Oc2ccccc2)cc1 [Compound Z247616328] | 11
CS(=O)(=O)c1ccc(S(=O)(=O)Cl)cc1 [Compound Z248485700] | 73
Cc1ccc(C(CNC(=O)c2cc(Cl)c[nH]2)N2CCOCC2)o1 (stereo not drawn) [Compound Z254387106] | -10
CCn1ncc2c(C(=O)N(C)C)cc(-c3cccs3)nc21 [Compound Z254580980] | -9
O=C1CN(C(=O)c2nn(-c3ccc(F)cc3)c3c2CCCCC3)CCN1 [Compound Z254636716] | 10
NC(=O)CCn1c(SCc2cn3ccccc3n2)nnc1-c1cccs1 [Compound Z269761360] | 7
O=C(Nc1cccc(C#Cc2cccs2)c1)C1CC2CCCC(C1)C2=O (stereo not drawn) [Compound Z271080962] | -2
CS(=O)(=O)c1ccccc1S(=O)(=O)Cl [Compound Z271096440] | 59
Cc1cn2c3c(=O)n(CC(C)C)c(=O)n(C)c3nc2n1-c1ccc(S(N)(=O)=O)cc1 [Compound Z271111810] | 4
c1ccc(-c2nc(Sc3n[nH]c(-c4ccncc4)n3)nc3ccccc23)cc1 [Compound Z271700602] | -1
Cc1sc2nc(CN3CCC(C)CC3)nc(N3CCN(C(=O)c4ccccc4F)CC3)c2c1C [Compound Z275104396] | 0
CCn1c(CSc2nnc(-c3sc(C)nc3C)o2)nc2cc(S(=O)(=O)N(C)C)ccc21 [Compound Z275500628] | 49
CCn1c(=O)c2c(nc3n(-c4ccc(N(C)C)cc4)c(C)cn23)n(C)c1=O [Compound Z278205390] | 10
Nc1nccnc1C(=O)Nc1ncc(Cc2cc(F)cc(F)c2)s1 [Compound Z281652038] | -1
Cc1cn2c3c(=O)n(CC(C)C)c(=O)n(C)c3nc2n1-c1ccc(N(C)C)cc1 [Compound Z281877508] | 6
CCN(CC)Cc1ccc(CNC(=O)c2ccccc2SCc2cscn2)cc1 [Compound Z283831144] | 33
CN(Cc1ccc(F)cc1F)C(=O)c1cc(-c2ccccc2)nc2c1cnn2Cc1ccncc1 [Compound Z283846026] | 11
CCCn1c(=O)[nH]c(=O)c2cc(C(=O)N(CC)Cc3ccc4c(c3)OCO4)cnc21 [Compound Z284160386] | 5
CC(=O)N1CCc2cc(NC(=O)c3ccccc3SCc3cn4ccccc4n3)ccc21 [Compound Z285525778] | -11
CS(=O)(=O)c1ccc(S(=O)(=O)N2CCCC2)cc1 [Compound Z285664940] | 8
CS(=O)(=O)c1ccccc1S(=O)(=O)N1CCCC1 [Compound Z285664942] | -3
CC1CC(C)CN(S(=O)(=O)c2ccccc2S(C)(=O)=O)C1 (stereo not drawn) [Compound Z285665176] | 55
CCCN(CCC)S(=O)(=O)c1ccc(S(C)(=O)=O)cc1 [Compound Z285665192] | 14
CN(Cc1ccccc1Cl)S(=O)(=O)c1ccccc1S(C)(=O)=O [Compound Z285666434] | -2

Compound | First screening IR (inhibition rate) [%]
FC(F)(F)c1ccnc(Nc2ccc3c(c2)OCO3)n1 [Compound Z285674740] | 21
FC(F)(F)c1ccnc(Nc2ccc(N3CCOCC3)cc2)n1 [Compound Z285679120] | 7
FC(F)(F)c1ccnc(Nc2cccc(/C=C/c3ccccn3)c2)n1 [Compound Z285694006] | 12
O=C1CCCN1c1ccc(Nc2nccc(C(F)(F)F)n2)cc1 [Compound Z285697278] | -12
FC(F)(F)c1ccnc(Nc2ccc3[nH]ncc3c2)n1 [Compound Z285702074] | 0
FC(F)(F)c1ccnc(Nc2ccc3c(c2)OC2(CCCCC2)O3)n1 [Compound Z285712986] | 4
CN1C/C(=C/c2ccc(-n3cncn3)cc2)c2nc3ccccc3c(C(=O)O)c2C1 [Compound Z285929216] | 1
CCCN(CCC)S(=O)(=O)c1cccc(S(=O)(=O)N(C)C)c1 [Compound Z285950112] | -4
CN(C)S(=O)(=O)c1cccc(S(=O)(=O)N(C)C)c1 [Compound Z285953016] | 13
CNS(=O)(=O)c1cccc(S(=O)(=O)N(C)C)c1 [Compound Z285953204] | 2
CC(C)c1cccc(NS(=O)(=O)c2ccc(-n3ncc(Cl)c(Cl)c3=O)cc2)c1 [Compound Z286115224] | 6
CC1CCCC(C)C12NC(=O)N(CN(C)CC(=O)Nc1ccccc1Cl)C2=O (stereo not drawn) [Compound Z286135428] | 5
CC(c1ccccc1)N1C(=O)C(=O)N(CC(=O)c2cccn2C)C1=O (stereo not drawn) [Compound Z290228874] | -8
CC(C)c1ccc(SCc2nc(N)nc(N(C)C)n2)cc1 [Compound Z290622280] | 4
Cc1c(C)c(C)c(C(=O)OCC(=O)NCC(=O)N2CCCC2)c(C)c1C [Compound Z291423432] | -6
Cc1nn(CCC(=O)O)c2nc(-c3cccs3)cc(C(=O)O)c12 [Compound Z295455358] | -2
COc1ccc(-n2cc(-c3ccccc3)c3c(=O)[nH]cnc32)cc1 [Compound Z295463532] | -5
CC(NC(=O)C1=NN(c2ccc(F)cc2)C(C(N)=O)C1)c1ccc(F)cc1F (stereo not drawn) [Compound Z295508576] | 6
CCOC(=O)c1cc(-c2ccccc2)nc2[nH]c(=O)c3ccccc3c12 [Compound Z295883036] | 9
O=C(Nc1nc(-c2ccc[nH]2)cs1)c1csc(-c2ccco2)n1 [Compound Z296244664] | -6
CC(C)(C)OC(=O)N1CCc2nc(NC(=O)c3csc(-c4ccco4)n3)sc2C1 [Compound Z296452432] | -4
CC(Sc1n[nH]c(/C=C/c2ccccc2)n1)c1nc(C(C)(C)C)no1 (stereo not drawn) [Compound Z298272042] | 12
CS(=O)(=O)c1cccc(S(N)(=O)=O)c1 [Compound Z299680982] | 5
CCC1CCCCN1S(=O)(=O)c1ccc(S(C)(=O)=O)cc1 (stereo not drawn) [Compound Z300098278] | 51

Compound | First screening IR (inhibition rate) [%]
CN(C)S(=O)(=O)c1ccc(S(C)(=O)=O)cc1 [Compound Z300114426] | -8
Cc1ccc(S(=O)(=O)N2CCCN(S(=O)(=O)N3CC(C)CC(C)C3)CC2)cc1 (stereo not drawn) [Compound Z300467774] | 4
CN(C1CCCCCC1)S(=O)(=O)c1cccc(S(C)(=O)=O)c1 [Compound Z300508876] | -7
CC(C)CN1CCOC(CNC(=O)c2cc3cc(F)ccc3[nH]2)C1 (stereo not drawn) [Compound Z300664804] | -5
c1ccc(-c2cn3nc(NCCCN4CCOCC4)sc3n2)cc1 [Compound Z300797868] | 11
Cc1cc(C)n(CCCNC(=O)c2cc3cc(F)ccc3[nH]2)n1 [Compound Z301214762] | 8
O=c1[nH]cnc2c1c(-c1ccccc1)cn2-c1ccc(F)cc1 [Compound Z314617634] | 7
COc1cccc(/C(O)=C2\C(=O)C(=O)N(CCCn3ccnc3)C2c2cccc([N+](=O)[O-])c2)c1 (stereo not drawn) [Compound Z316156320] | -1
CCCOc1ccc(C2/C(=C(\O)c3ccc(F)cc3)C(=O)C(=O)N2CCCn2ccnc2)cc1OC (stereo not drawn) [Compound Z316169876] | 10
COc1ccc(/C(O)=C2\C(=O)C(=O)N(CCCn3ccnc3)C2c2ccc(OC(C)C)cc2)cc1 (stereo not drawn) [Compound Z316169960] | 12
Fc1ccccc1-n1c(SCc2cccnc2)nnc1-c1ccccc1Cl [Compound Z316264326] | 1
O=C(Nc1cccc(S(=O)(=O)NC2=NCCCCC2)c1)C1(c2cccc(Cl)c2)CC1 [Compound Z316438002] | 23
COc1ccc(-c2cc(CSCC(=O)Nc3ccc4c(c3)CCC4)on2)cc1 [Compound Z317186982] | -4
COc1ccc(-c2cc(CSCc3nc(N)nc(Nc4ccccc4)n3)on2)cc1 [Compound Z317187130] | -7
CC(Sc1ncn(-c2ccccc2)n1)c1nc(N)nc(N(C)C)n1 (stereo not drawn) [Compound Z317369924] | -4
O=C(Nc1nc2c(s1)CN(Cc1ccccc1)CC2)c1cc(-c2ccco2)[nH]n1 [Compound Z317663344] | -10
O=C(NCc1ccc(-n2cccn2)nc1)c1cc(-c2ccco2)[nH]n1 [Compound Z317736476] | -2
Cc1ccc(Nc2nccc(C(F)(F)F)n2)cc1S(=O)(=O)N(C)C [Compound Z318799754] | 6
N#CCOc1ccc(Nc2nccc(C(F)(F)F)n2)cc1 [Compound Z318833320] | 7
Nc1c(Cl)cc(Nc2nccc(C(F)(F)F)n2)cc1Cl [Compound Z318854232] | 7
FC(F)(F)c1ccnc(Nc2ccc3nc(N4CCCC4)sc3c2)n1 [Compound Z318995726] | 22
FC(F)(F)c1ccnc(Nc2ccc(N3CCOCC3)nc2)n1 [Compound Z318998372] | -7

Same assay, conditions: second screening, dissolved from fresh powder; n = 4; 10 μmol L−1 compound

Compound | Second screening IR (inhibition rate) [%]
CS(=O)(=O)c1ccc(S(=O)(=O)Cl)cc1 [Compound Z248485700] | -3
CS(=O)(=O)c1ccccc1S(=O)(=O)Cl [Compound Z271096440] | 2
